# Results as given in patent publication US20240285808A1, “MOLECULAR PROBES FOR IN VIVO DETECTION OF ALDEHYDES” (The General Hospital Corporation, priority 2021, published 2024).
# Read-outs that look alike come from different tables or passages of the source.
# Columns and labels:
# [1] = Stability of compounds in human plasma; assay type: in vitro ADME; settings: 37° C., 2 or 3 hours
# Description: Stability of Compounds in Human Plasma:
# A 16 μL aliquot of the Gd or Mn complex (1.0 mM) was added to 500 μL of human plasma (Lampire Biological laboratories). The solution was then incubated for 2 or 3 hours at 37° C. Aliquots (50 μL) were removed at 1, 2 or 3 hours. Proteins were precipitated by the addition of 150 μL of acetonitrile and removed following centrifugation. The supernatant was then analyzed using HPLC-ICP-MS. No unchelated gadolinium was observed nor the appearance of any new Gd/Mn-containing species.
# [2] = test system: myocardium of SAMP8/SAMR1 mice with TAC; settings: 20 min post injection
# Description: Combined Heart and Lung Fibrosis Model:
# Left ventricular dysfunction with pulmonary hypertension was induced by left thoracotomy transverse aortic constriction surgery (TAC) in 6-month-old senescence-accelerated-prone/resistant mice (SAMP8/SAMR1), which is a well-established model of pressure overload-induced cardiac hypertrophy that can induce heart and lung fibrosis. The transverse aorta was encircled with 7-0 nylon suture and tied tightly around a pre-sterilized, blunt-end of a 27-gauge needle. After securing the knot, the needle was removed, and aortic flow resumed. Another two groups of SAMP8 and SAMR1 mice received sham surgery as control. 3-weeks post-surgery, mice were anesthetized with isoflurane (1.5%) and imaged at a 4.7 Tesla Bruker MRI scanner.
# For combined heart and lung imaging, a series of baseline images (2D T1 weighted FLASH for heart and 3D-UTE for lung) were first acquired. 2D T1 weighted FLASH: repetition time/echo time=18.24/3.54 ms; flip angle, 50°; field of view, 36×36 mm^2; matrix size, 138×138 mm^2; slice thickness, 1 mm; acquisition time, 3 minutes 50 seconds. 3D-UTE: repetition time/echo time=4/0.01225 ms; flip angle, 16°; field of view, 32×32 mm^2; matrix size, 128×128 mm^2; slice thickness, 0.25 mm; acquisition time, 3 minutes 36 seconds. Then a bolus of Gd-9 complex was administered i.v. and imaging performed for a period of 40 min p.i. with the repetition acquisition of 2D T1 weighted FLASH and 3D-UTE sequences. Following the imaging session, animals were sacrificed and heart and lung tissue was subjected to histopathologic analysis.
# For heart imaging analysis, FLASH image pre-contrast and immediately post-contrast were used to define regions of interest (ROIs) in the myocardium that excluded blood vessels. The percentage of signal intensity change (% SI) was calculated by comparing the SI measured after probe injection to SI measured prior to probe injection.
# [3] = Reaction rates with butyraldehyde measured by HPLC-ICP-MS (Method B); assay type: physicochemical; settings: Method b: butyraldehyde 100 μM, probe 25 μM, pH 7.40
# Description: Method B: Reaction Rates of Compounds with Butyraldehyde Measured by HPLC-ICP-MS
# The reactions were conducted in pH 7.40 phosphate-buffered with butyraldehyde concentration of 100 μM and hydrazine probes at 25 μM. Concentrations of unreacted starting material and condensation products were determined at 10 min time intervals over 2 hours based on their relative integrations. The values were fit to a standard first order rate constant linear equation and the rate constant was extracted from the slope.
# Reaction with Butyraldehyde Monitored by HPLC-ICP-MS
# Reactions were conducted in pH 7.4 phosphate-buffered saline with butyraldehyde concentration of 100 μM and hydrazine probes at 25 μM. Concentrations of unreacted starting material and condensation products were determined based on their relative integrations at 12 min time intervals over 2 hours.
# IRI kidney cortex = test: MR imaging of kidney ischemia-reperfusion (IRI) model; assay type: in vivo, mouse; settings: for Change in longitudinal relaxation time (ΔT1): 4 h post injection, n = 11
# Description: Kidney Ischemia-Reperfusion (IRI) Model:
# Male C57BL/6 mice (10-12 weeks old; Charles River Laboratories) were anesthetized with ketamine/xylazine (100/10 mg/kg; IP). Animals were then placed prone while maintaining rectal temperature strictly at 37° C. with a feedback-regulated heating pad. The skin incision was performed on the left lower flank while adhering to strict aseptic procedures. After accessing the retroperitoneal space, the left kidney, and the left renal artery-vein was identified. Ischemia was induced by applying a micro serrefine clip onto the renal artery and vein. Successful ischemia was visually confirmed by a gradual uniform darkening of the kidney. The clamp was removed 26 minutes later, and a rapid change verified successful reperfusion in kidney color from a dark maroon to a healthy dark pink. The skin was closed using surgical staples, and animals were returned to their home cages. Analgesia was provided by buprenorphine (0.1 mg/kg, SC, bid for three days starting 1 hour before IRI surgery).
# Animals were imaged 14 days after IRI and were euthanized after imaging. The right and left kidneys were removed, cortex and medulla regions of each kidney were separated for further analysis.
# For kidney imaging, a series of three-dimensional inversion-recovery FLASH images were acquired at baseline and 4 hours after Mn-16 administration with inversion recovery times of 7, 307, 557, 707, 857, 1507, 3007, 5007, and 7007 msec. (TR/TE/FA=5 see/72 msec, field of view (FOV) […], dimension 128×128, slice thickness 0.7 mm).
# For kidney imaging analysis, longitudinal relaxation time (T1) was obtained by fitting inversion recovery data to a T1 relaxation equation (M0×(1−2 exp(−TI/T1))) and change in T1 (ΔT1) was calculated by subtracting T1 measured prior to probe injection (T1pre) from T1 measured after injection (T1post), eq 23.
Structure (SMILES),stability in human plasma (HPLC-ICP-MS) [1],% SI change of myocardium ([2]; SAMP1-Sham),% SI change of myocardium ([2]; SAMP1-TAC),% SI change of myocardium ([2]; SAMP8-Sham),% SI change of myocardium ([2]; SAMP8-TAC),k (second order rate constant) [3],Mn concentration (IRI kidney cortex; IRI kidney cortex),Change in longitudinal relaxation time (ΔT1) (IRI kidney cortex; IRI kidney cortex),Mn concentration (IRI kidney cortex; contralateral cortex),Change in longitudinal relaxation time (ΔT1) (IRI kidney cortex; contralateral cortex)
"NN1CCN(C(=O)CCC(C(=O)[O-])N2CCN(CC(=O)[O-])CCN(CC(=O)[O-])CCN(C(CCC(=O)N3CCN(N)CC3)C(=O)[O-])CC2)CC1.[Gd+3] (stereo not drawn) [Gd-9, cis-1,4-Gd-(CHyd)2]",lack of de-chelation or formation of Gd-containing metabolites,7.8 ± 4.7%,21.5 ± 8.4%,8.2 ± 5.3%,22 ± 7.9%,3.6 M⁻¹ s⁻¹,,,,
"NN1CCN(C(=O)CCC(C(=O)[O-])N2CCN(CC(=O)[O-])CCN(C(CCC(=O)N3CCN(N)CC3)C(=O)[O-])CCN(CC(=O)[O-])CC2)CC1.[Gd+3] (stereo not drawn) [Gd-10, trans-1,7-Gd-(CHyd)2]",lack of de-chelation or formation of Gd-containing metabolites,,,,,3.5 M⁻¹ s⁻¹,,,,
NOC(CCC(=O)NCCCN1CCN(CC(=O)[O-])Cc2cccc(n2)CN(CC(=O)[O-])CC1)C(=O)O.[Mn+2] (stereo not drawn) [Mn-16],,,,,,,90 nmol/g,-395 ms,60 nmol/g,-230 ms
